One may read the EC50 as the concentration giving half of the maximal effect. A higher EC50 goes with a need for much substance.

Where a name gives a salt, the structure may show the parent alone.

This test addresses T1, human GPR120 (Homo sapiens, UniProt Q5NUL3).
T1 construct: expressed in transfected cells; host or cells: CHOA12 cells
T1 sequence (Q5NUL3 1-361): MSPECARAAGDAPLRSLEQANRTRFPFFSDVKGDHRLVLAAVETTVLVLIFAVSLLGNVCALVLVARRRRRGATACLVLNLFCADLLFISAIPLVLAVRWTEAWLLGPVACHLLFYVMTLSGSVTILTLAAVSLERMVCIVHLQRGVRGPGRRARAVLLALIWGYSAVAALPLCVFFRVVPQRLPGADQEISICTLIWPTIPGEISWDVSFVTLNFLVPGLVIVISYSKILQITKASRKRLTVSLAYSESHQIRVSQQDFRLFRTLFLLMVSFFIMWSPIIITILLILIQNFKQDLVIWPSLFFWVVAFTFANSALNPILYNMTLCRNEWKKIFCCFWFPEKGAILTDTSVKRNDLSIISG
The test is described as follows: GPR120 pERK AlphaScreen SureFire assay (human). The class given is cell-based. Conditions: CHO cells stably transfected with short form of human GPR120. The procedure, abridged: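 CHOA12 cells stably expressing short-form human GPR120, serum-starved 2 h, were stimulated 7 min at 37 °C with compound (33.33 μM–0.56 nM, 11-point). pERK read by AlphaScreen SureFire; activation normalized to 50 μM linolenic acid and DMSO blank, EC50 by 4-parameter fit.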
On the technique in general: Alpha assays give light when donor and acceptor beads are brought close together.

Take `COc1cccc(Oc2cccc(C34CCC(CCOCC(=O)O)(CC3)OC4)c2)c1` [Example 102]: the EC50 came out at 660 nM.
Consider `O=C(O)CNC(=O)CC12CCC(c3cccc(Oc4ccccc4)c3)(CC1)OC2` [Example 27, 2-(2-(1-(3-Phenoxyphenyl)-2-oxabicyclo[2.2.2]octan-4-yl)acetamido)acetic acid], for which the EC50 turned out to be 5020 nM.
`O=C(O)COCCC12CCC(c3cccc(OS(=O)(=O)C(F)(F)F)c3)(CC1)OC2` [Example 47, 2-(2-(1-(3-(Trifluoromethylsulfonyloxy)phenyl)-2-oxabicyclo[2.2.2]octan-4-yl)ethoxy)acetic acid]: the midpoint of the response, the EC50, lay at 1030 nM.
The figure for `O=C(O)[C@@H]1C[C@H]1CCC12CCC(c3cccc(Oc4ccc(F)c(F)c4)c3)(CC1)OC2` [Example 73, (1R,2R)-2-(2-(1-(3-(3,4-difluorophenoxy)phenyl)-2-oxabicyclo[2.2.2]octan-4-yl)ethyl) cyclopropanecarboxylic acid] is 540 nM.
The value for `O=C(O)COCCC12CCC(c3cccc(Oc4ccc(F)c(F)c4)c3)(CC1)OC2` [Example 75, 2-(2-(1-(3-(3,4-difluoro-phenoxy)phenyl)-2-oxabicyclo[2.2.2]octan-4-yl)ethoxy)acetic acid] was 400 nM; that for `CCc1cccc(Oc2cccc(C34CCC(CC[C@@H]5C[C@H]5C(=O)O)(CC3)CO4)c2)c1` [Example 118, (1R,2R)-2-(2-(1-(3-(3-Ethylphenoxy)phenyl)-2-oxabicyclo[2.2.2]octan-4-yl)ethyl)cyclo-propane carboxylic acid] was 1890 nM; that for `O=C(O)CCOCC12CCC(c3cccc(Oc4ccccc4)c3)(CC1)CO2` [Example 30, 3-((4-(3-Phenoxyphenyl)-2-oxabicyclo[2.2.2]octan-1-yl)methoxy)propanoic acid] was 140 nM.
`Cc1nc(-c2ccccc2)c(C23CCC(CCCCC(=O)O)(CC2)CO3)s1` [Example 4, 5-(1-(2-Methyl-4-phenylthiazol-5-yl)-2-oxabicyclo[2.2.2]octan-4-yl)pentanoic acid] yielded an EC50 of 1600 nM.
The value for `COc1ccc(Oc2cccc(C34CCC(CCOCC(=O)O)(CC3)CO4)c2)cc1` [Example 42, 2-(2-(1-(3-(4-methoxyphenoxy)phenyl)-2-oxabicyclo [2.2.2]octan-4-yl)ethoxy)acetic acid] was 370 nM; that for `O=C(O)COCCC12CCC(c3cccc(Oc4ccccc4)c3)(CC1)CO2` [Example 31, 2-(2-(4-(3-Phenoxyphenyl)-2-oxabicyclo[2.2.2]octan-1-yl)ethoxy)acetic acid] was 280 nM.
The value for `CC(C)COc1cccc(C23CCC(CCOCC(=O)O)(CC2)CO3)c1` [Example 9, 2-(2-(1-(3-Isobutoxyphenyl)-2-oxabicyclo[2.2.2]octan-4-yl)ethoxy)acetic acid] was 1280 nM; that for `CC(C)Oc1cccc(C23CCC(CCOCC(=O)O)(CC2)CO3)c1` [Example 7, 2-(2-(1-(3-Isopropoxyphenyl)-2-oxabicyclo[2.2.2]octan-4-yl)ethoxy)acetic acid] was 7540 nM.
The figure for `Cc1cc(Oc2cc(C34CCC(CCOCC(=O)O)(CC3)OC4)ccc2F)ccc1C#N` [Example 114] is 2730 nM.
Compound `O=C(O)COCCC12CCC(c3cccc(Oc4cccnc4)c3)(CC1)OC2` [Example 21, 2-(2-(1-(3-(Pyridin-3-yloxy)phenyl)-2-oxabicyclo[2.2.2]octan-4-yl)ethoxy)acetic acid, TFA salt] displayed an EC50 of 6860 nM.
The value for `Cc1ccc(Oc2cccc(C34CCC(CCOCC(=O)O)(CC3)CO4)c2)cc1F` [Example 77, 2-(2-(1-(3-(3-fluoro-4-methylphenoxy)phenyl)-2-oxabicyclo[2.2.2]octan-4-yl)ethoxy)acetic acid] was 230 nM; that for `O=C(O)CCCCC12CCC(c3cccc(OC4CCCCO4)c3)(CC1)OC2` (stereo not shown) [Example 10, 5-(1-(3-(Tetrahydro-2H-pyran-2-yloxy)phenyl)-2-oxabicyclo[2.2.2]octan-4-yl)pentanoic acid] was 640 nM.
